Source: EPA's ToxValDB 9.5 (doi:10.2903/j.efsa.2010.1707)
≈ marks a conversion by molar mass, not a printed value.

Tests used:
Rattus norvegicus = details: oral
Folsomia candida = details: chronic/long-term; duration: 28 days
Apis mellifera = details: acute; duration: 48 hours; oral; unspecified; mortality
Oryctolagus sp. = details: developmental; development
Canidae = details: chronic; duration: 1 years; oral; Dog Other; clinical chemistry
Daphnia magna = details: chronic/long-term; duration: 21 days; growth
Pimephales promelas = details: chronic/long-term; duration: 34 days; other
Bibionidae = details: chronic/long-term; duration: 28 days
Oncorhynchus mykiss = details: acute; duration: 96 hours; mortality
Cyprinodon variegatus = details: acute; duration: 96 hours; mortality
Aphidius rhopalosiphi = assay: LR50; higher = less toxic; details: not reported; mortality
Typhlodromus pyri = assay: LR50; higher = less toxic; details: not reported; mortality

CCCN(CCC)c1c([N+](=O)[O-])cc(S(N)(=O)=O)cc1[N+](=O)[O-] [Oryzalin]
LD50 (Rattus norvegicus; acute, mortality): > 5000 mg/kg-day
NOAEL (Rattus norvegicus; subchronic, duration: 90 days, hematological): 5 mg/kg-day
NOEC (Folsomia candida): 34.3 mg/kg
NOEL (Anas platyrhynchos; reproductive): 41 mg/kg-day
LD50 (Anas platyrhynchos; short-term, oral, feed, mortality): > 1350 mg/kg-day
LD50 (Apis mellifera): 32 µg/piece
NOAEL (Oryctolagus sp.): 25 mg/kg-day
NOAEL (Canidae): 5 mg/kg-day
LC50 (Tagia sp.; acute, duration: 14 days, mortality): > 103 mg/kg
NOEC (Tagia sp.; chronic/long-term, duration: 56 days): 34.3 mg/kg
NOEC (Daphnia magna): 0.36 mg/L
NOEC (Pimephales promelas): 0.22 mg/L
NOEC (Bibionidae): 1 mg/L
LC50 (Oncorhynchus mykiss): 2.86 µg/mL (≈ 8.26 µM)
LC50 (Cyprinodon variegatus): > 3.04 µg/mL
LD50 (Colinus virginianus; acute, oral, diet, mortality): > 691 mg/kg-day
NOEL (Colinus virginianus; reproduction developmental): 28 mg/kg-day
LR50 (Aphidius rhopalosiphi): > 3850 g/ha
LR50 (Typhlodromus pyri): < 3850 g/ha
